Experimental data reported in patent EP3995133A1, “STABLE NANOEMULSIONS” (Fundación Tecnalia Research & Innovation, priority 2020, dated 2022).
Like-named read-outs stand apart in the source and are kept apart here.

Assays:
[1] = tested on: 3T3; conditions: 3T3, 24 hours
Protocol: (§1) Potential apoptosis and necrosis induction was studied in the cell lines using Annexin V conjugated with Alexa Fluor 488 (Molecular Probes) and Propidium Iodide (PI, Sigma) fluorochromes by Flow Cytometry, to measure early apoptotic event and necrosis respectively, after exposure to different concentrations of sulforaphane or sulforaphane-loaded nanoemulsion suspensions. HaCaT, and 3T3 cells were seeded in 24 well plates at a density of 100.000 cells/well. 24 hours later cells were exposed to test items for further 24 hours. After the exposure, 5 µL of the annexin V conjugates were added to each 100 µL of cell suspension replicate (minimum of 10.000 cell/100µL) and incubated at room temperature for 15 minutes. After incubation, cells were washed and submitted to flow cytometry acquisition. Immediately before acquisition, the stained cells were contrasted with PI (5 µg/ml) to detect necrotic cells and analysed by Cytomics FC500 Flow Cytometer. Three independent experiments and at least three replicates for each experimental point were carried out. Each experiment included a negative control (untreated cells). […]

[2] = tested on: HaCaT; conditions: 24 hours
Protocol: as §1

[3] = 6.25 mM sulforaphane (6.26 printed for the nanoemulsion)

C[S+]([O-])CCCCN=C=S (racemic) [Sulforaphane, D,L-Sulforaphane]
AnnexinV (percentage of positive cells) ([1]; 3.125 mM sulforaphane): 7.73±1.23%
AnnexinV+PI (percentage of positive cells) ([1]; 3.125 mM sulforaphane): 1.93±0.15%
C neg (percentage of cells) ([1]; 3.125 mM sulforaphane): 86.23±1.77%
PI (percentage of positive cells) ([1]; 3.125 mM sulforaphane): 4.10±2.38%
AnnexinV (percentage of positive cells) [1, 3]: 7.83±1.50%
AnnexinV+PI (percentage of positive cells) [1, 3]: 2.03±0.46%
C neg (percentage of cells) [1, 3]: 86.97±1.68%
PI (percentage of positive cells) [1, 3]: 3.17±0.76%
AnnexinV (percentage of positive cells) ([1]; 12.5 mM sulforaphane): 11.07±1.59%
AnnexinV+PI (percentage of positive cells) ([1]; 12.5 mM sulforaphane): 3.07±0.67%
C neg (percentage of cells) ([1]; 12.5 mM sulforaphane): 81.57±3.40%
PI (percentage of positive cells) ([1]; 12.5 mM sulforaphane): 4.30±0.54%
AnnexinV (percentage of positive cells) ([2]; 3.125 mM sulforaphane): 5.90±0.98%
AnnexinV+PI (percentage of positive cells) ([2]; 3.125 mM sulforaphane): 1.27±0.06%
C neg (percentage of cells) ([2]; 3.125 mM sulforaphane): 90.97±1.77%
PI (percentage of positive cells) ([2]; 3.125 mM sulforaphane): 1.87±0.81%
AnnexinV (percentage of positive cells) [2, 3]: 7.33±1.82%
AnnexinV+PI (percentage of positive cells) [2, 3]: 1.83±0.15%
C neg (percentage of cells) [2, 3]: 88.50±1.65%
PI (percentage of positive cells) [2, 3]: 2.33±0.61%
AnnexinV (percentage of positive cells) ([2]; 12.5 mM sulforaphane): 7.17±1.74%
AnnexinV+PI (percentage of positive cells) ([2]; 12.5 mM sulforaphane): 2.03±0.35%
C neg (percentage of cells) ([2]; 12.5 mM sulforaphane): 88.10±3.40%
PI (percentage of positive cells) ([2]; 12.5 mM sulforaphane): 2.70±0.30%
